Source: paper PMC7561186, “Rational design of balanced dual-targeting antibiotics with limited resistance” (PLoS Biology, 2020)
In brackets after ≈: the same amount, converted by molar mass. Where two headings read alike, the source gives them in different places.

Tested on: S. aureus clinical isolates
Assay: microbe, parasite or virus in culture
Assay type: cell-based
Details: Staphylococcus aureus, read-out: MIC

## Cc1onc(-c2ccccc2)c1C(=O)N[C@@H]1C(=O)N2[C@@H]1SC(C)(C)[C@@H]2C(=O)O [Oxacillin]
ATCC 29213 / MSSA, S. aureus ATCC 29213, MSSA / VSSA, test date 2018-10-25 (three repeat lines)
  MIC: 0.25 µg/mL (≈ 0.623 µM)
ATCC 29213 / MSSA, S. aureus ATCC 29213, MSSA / VSSA, test date 2018-11-07
  MIC: 0.25 µg/mL (≈ 0.623 µM)
MRSA / NRS 3 / VISA, S. aureus IHMA 1308243, NRS3, MRSA / VISA
  MIC: > 64 µg/mL
MRSA / NRS 4 / VISA, S. aureus IHMA 649380, NRS4, MRSA / VISA
  MIC: > 64 µg/mL
MRSA / NRS 18 / VISA, S. aureus IHMA 649386, NRS18, MRSA / VISA
  MIC: 64 µg/mL (≈ 159 µM)
MRSA / NRS 19 / VISA, S. aureus IHMA 649387, NRS19, MRSA / VISA
  MIC: > 64 µg/mL
MRSA / NRS 21 / VISA, S. aureus IHMA 649388, NRS21, MRSA / VISA
  MIC: > 64 µg/mL
MRSA / NRS 22 / USA600 / VISA, S. aureus IHMA 649389, NRS22, MRSA / VISA, USA600
  MIC: 16 µg/mL (≈ 39.9 µM)
MRSA / NRS 23 / VISA, S. aureus IHMA 649390, NRS23, MRSA / VISA
  MIC: > 64 µg/mL
MRSA / NRS 24 / VISA, S. aureus IHMA 649391, NRS24, MRSA / VISA
  MIC: > 64 µg/mL
MRSA / NRS 26, S. aureus IHMA 649392, NRS26, MRSA / VSSA
  MIC: > 64 µg/mL
MRSA / NRS 27 / VISA, S. aureus IHMA 1308248, NRS27, MRSA / VISA
  MIC: > 64 µg/mL
MRSA / NRS 29 / VISA, S. aureus IHMA 1308250, NRS29, MRSA / VISA
  MIC: > 64 µg/mL
MRSA / NRS 37 / VISA, S. aureus IHMA 1308251, NRS37, MRSA / VISA
  MIC: 8 µg/mL (≈ 19.9 µM)
MRSA / NRS 54, S. aureus IHMA 1308253, NRS54, MRSA / VSSA* (*Expected VAN intermediate, confirmed VAN susceptible twice), test date 2018-11-07
  MIC: > 64 µg/mL
MRSA / NRS 56 / VISA, S. aureus IHMA 1308254, NRS56, MRSA / VISA
  MIC: > 64 µg/mL
MRSA / USA100 / VRSA, S. aureus IHMA 672230, VRS1, MRSA / VRSA, USA100
  MIC: > 64 µg/mL
MRSA / USA100 / VRSA, S. aureus IHMA 672231, VRS2, MRSA / VRSA, USA100
  MIC: > 64 µg/mL
MRSA / USA100 / VRSA, S. aureus IHMA 672234, VRS4, MRSA / VRSA, USA100
  MIC: > 64 µg/mL
MRSA / USA100 / VRSA, S. aureus IHMA 672235, VRS5, MRSA / VRSA, USA100
  MIC: > 64 µg/mL
MRSA / USA100 / VRSA, S. aureus IHMA 672237, VRS7, MRSA / VRSA, USA100
  MIC: > 64 µg/mL
MRSA / USA100 / VRSA, S. aureus IHMA 672238, VRS8, MRSA / VRSA, USA100
  MIC: > 64 µg/mL
MRSA / USA100 / VRSA, S. aureus IHMA 672239, VRS9, MRSA / VRSA, USA100
  MIC: > 64 µg/mL
MRSA / USA100 / VRSA, S. aureus IHMA 1308256, VRS10, MRSA / VRSA, USA100
  MIC: > 64 µg/mL
MRSA / USA100 / VRSA, S. aureus IHMA 1308258, VRS11b, MRSA / VRSA, USA100
  MIC: 16 µg/mL (≈ 39.9 µM)
MRSA / USA800 / VRSA, S. aureus IHMA 672233, VRS3b, MRSA / VRSA, USA800
  MIC: > 64 µg/mL
MRSA, S. aureus IHMA 1569509, MRSA / VSSA
  MIC: > 64 µg/mL
MRSA, S. aureus IHMA 1575268, MRSA / VSSA
  MIC: > 64 µg/mL
MRSA, S. aureus IHMA 1575629, MRSA / VSSA
  MIC: 64 µg/mL (≈ 159 µM)
MRSA, S. aureus IHMA 1577820, MRSA / VSSA
  MIC: 32 µg/mL (≈ 79.7 µM)
MRSA, S. aureus IHMA 1580300, MRSA / VSSA
  MIC: > 64 µg/mL
MRSA, S. aureus IHMA 1580940, MRSA / VSSA
  MIC: 32 µg/mL (≈ 79.7 µM)
MRSA, S. aureus IHMA 1582100, MRSA / VSSA
  MIC: > 64 µg/mL
MRSA, S. aureus IHMA 1583795, MRSA / VSSA
  MIC: > 64 µg/mL
MRSA, S. aureus IHMA 1584223, MRSA / VSSA
  MIC: > 64 µg/mL
MRSA, S. aureus IHMA 1585316, MRSA / VSSA
  MIC: > 64 µg/mL
MRSA, S. aureus IHMA 1586780, MRSA / VSSA
  MIC: 32 µg/mL (≈ 79.7 µM)
MRSA, S. aureus IHMA 1587322, MRSA / VSSA
  MIC: > 64 µg/mL
MRSA, S. aureus IHMA 1588127, MRSA / VSSA
  MIC: 32 µg/mL (≈ 79.7 µM)
MRSA, S. aureus IHMA 1591462, MRSA / VSSA
  MIC: 32 µg/mL (≈ 79.7 µM)
MRSA, S. aureus IHMA 1592755, MRSA / VSSA
  MIC: > 64 µg/mL
MRSA, S. aureus IHMA 1592776, MRSA / VSSA
  MIC: 32 µg/mL (≈ 79.7 µM)
MRSA, S. aureus IHMA 1597106, MRSA / VSSA
  MIC: > 64 µg/mL
MRSA, S. aureus IHMA 1602095, MRSA / VSSA
  MIC: 32 µg/mL (≈ 79.7 µM)
MRSA, S. aureus IHMA 1611170, MRSA / VSSA
  MIC: 16 µg/mL (≈ 39.9 µM)
MRSA, S. aureus IHMA 1611612, MRSA / VSSA
  MIC: > 64 µg/mL
MRSA, S. aureus IHMA 1612228, MRSA / VSSA
  MIC: > 64 µg/mL
MRSA, S. aureus IHMA 1620441, MRSA / VSSA
  MIC: > 64 µg/mL
MRSA, S. aureus IHMA 1621638, MRSA / VSSA
  MIC: 32 µg/mL (≈ 79.7 µM)
MRSA, S. aureus IHMA 1622252, MRSA / VSSA
  MIC: > 64 µg/mL
MRSA, S. aureus IHMA 1622527, MRSA / VSSA
  MIC: 32 µg/mL (≈ 79.7 µM)
MRSA, S. aureus IHMA 1666371, MRSA / VSSA
  MIC: 16 µg/mL (≈ 39.9 µM)
MRSA, S. aureus IHMA 1695391, MRSA / VSSA
  MIC: > 64 µg/mL
MRSA, S. aureus IHMA 1703428, MRSA / VSSA
  MIC: 64 µg/mL (≈ 159 µM)
MRSA, S. aureus IHMA 1720350, MRSA / VSSA
  MIC: 32 µg/mL (≈ 79.7 µM)
MRSA, S. aureus IHMA 1732989, MRSA / VSSA
  MIC: > 64 µg/mL
MRSA, S. aureus IHMA 1742231, MRSA / VSSA
  MIC: > 64 µg/mL
MRSA, S. aureus IHMA 1766357, MRSA / VSSA
  MIC: 32 µg/mL (≈ 79.7 µM)
MSSA / NRS 12 / VISA, S. aureus IHMA 1308244, NRS12, MSSA / VISA
  MIC: 0.25 µg/mL (≈ 0.623 µM)
MSSA / NRS 13 / VISA, S. aureus IHMA 1308245, NRS13, MSSA / VISA
  MIC: 0.5 µg/mL (≈ 1.25 µM)
MSSA / NRS 14 / VISA, S. aureus IHMA 1308246, NRS14, MSSA / VISA
  MIC: 0.25 µg/mL (≈ 0.623 µM)
MSSA / NRS 17 / VISA, S. aureus IHMA 1308247, NRS17, MSSA / VISA
  MIC: 2 µg/mL (≈ 4.98 µM)
MSSA / NRS 28 / VISA, S. aureus IHMA 1308249, NRS28, MSSA / VISA
  MIC: 2 µg/mL (≈ 4.98 µM)
MSSA / NRS 52, S. aureus IHMA 1308252, NRS52, MSSA / VSSA* (*Expected VAN intermediate, confirmed VAN susceptible twice), test date 2018-11-07
  MIC: 0.12 µg/mL (≈ 0.299 µM)
MSSA / USA100 / VRSA, S. aureus IHMA 672236, VRS6, MSSA / VRSA, USA100
  MIC: 2 µg/mL (≈ 4.98 µM)
MSSA, S. aureus IHMA 1563826, MSSA / VSSA
  MIC: 0.25 µg/mL (≈ 0.623 µM)
MSSA, S. aureus IHMA 1565492, MSSA / VSSA
  MIC: 0.25 µg/mL (≈ 0.623 µM)
MSSA, S. aureus IHMA 1569499, MSSA / VSSA
  MIC: 1 µg/mL (≈ 2.49 µM)
MSSA, S. aureus IHMA 1569754, MSSA / VSSA
  MIC: 1 µg/mL (≈ 2.49 µM)
MSSA, S. aureus IHMA 1574202, MSSA / VSSA
  MIC: 2 µg/mL (≈ 4.98 µM)
MSSA, S. aureus IHMA 1575652, MSSA / VSSA
  MIC: 1 µg/mL (≈ 2.49 µM)
MSSA, S. aureus IHMA 1575779, MSSA / VSSA
  MIC: 0.5 µg/mL (≈ 1.25 µM)
MSSA, S. aureus IHMA 1576329, MSSA / VSSA
  MIC: 0.5 µg/mL (≈ 1.25 µM)
MSSA, S. aureus IHMA 1577800, MSSA / VSSA
  MIC: 0.5 µg/mL (≈ 1.25 µM)
MSSA, S. aureus IHMA 1578560, MSSA / VSSA
  MIC: 0.5 µg/mL (≈ 1.25 µM)
MSSA, S. aureus IHMA 1580233, MSSA / VSSA
  MIC: 0.5 µg/mL (≈ 1.25 µM)
MSSA, S. aureus IHMA 1580925, MSSA / VSSA
  MIC: 0.5 µg/mL (≈ 1.25 µM)
MSSA, S. aureus IHMA 1580955, MSSA / VSSA
  MIC: 0.5 µg/mL (≈ 1.25 µM)
MSSA, S. aureus IHMA 1582586, MSSA / VSSA
  MIC: 0.5 µg/mL (≈ 1.25 µM)
MSSA, S. aureus IHMA 1582691, MSSA / VSSA
  MIC: 0.25 µg/mL (≈ 0.623 µM)
MSSA, S. aureus IHMA 1584230, MSSA / VSSA
  MIC: 0.5 µg/mL (≈ 1.25 µM)
MSSA, S. aureus IHMA 1587279, MSSA / VSSA
  MIC: 0.25 µg/mL (≈ 0.623 µM)
MSSA, S. aureus IHMA 1591459, MSSA / VSSA
  MIC: 0.25 µg/mL (≈ 0.623 µM)
MSSA, S. aureus IHMA 1592749, MSSA / VSSA
  MIC: 0.25 µg/mL (≈ 0.623 µM)
MSSA, S. aureus IHMA 1592751, MSSA / VSSA
  MIC: 0.5 µg/mL (≈ 1.25 µM)
MSSA, S. aureus IHMA 1594297, MSSA / VSSA
  MIC: 0.5 µg/mL (≈ 1.25 µM)
MSSA, S. aureus IHMA 1597120, MSSA / VSSA
  MIC: 0.25 µg/mL (≈ 0.623 µM)
MSSA, S. aureus IHMA 1597125, MSSA / VSSA
  MIC: 0.5 µg/mL (≈ 1.25 µM)
MSSA, S. aureus IHMA 1599157, MSSA / VSSA
  MIC: 0.5 µg/mL (≈ 1.25 µM)
MSSA, S. aureus IHMA 1599506, MSSA / VSSA
  MIC: 0.5 µg/mL (≈ 1.25 µM)
MSSA, S. aureus IHMA 1602078, MSSA / VSSA
  MIC: 1 µg/mL (≈ 2.49 µM)
MSSA, S. aureus IHMA 1604586, MSSA / VSSA
  MIC: 0.5 µg/mL (≈ 1.25 µM)
MSSA, S. aureus IHMA 1604609, MSSA / VSSA
  MIC: 0.25 µg/mL (≈ 0.623 µM)
MSSA, S. aureus IHMA 1609919, MSSA / VSSA
  MIC: 0.25 µg/mL (≈ 0.623 µM)
MSSA, S. aureus IHMA 1622864, MSSA / VSSA
  MIC: 0.5 µg/mL (≈ 1.25 µM)
MSSA, S. aureus IHMA 1626392, MSSA / VSSA
  MIC: 0.5 µg/mL (≈ 1.25 µM)
MSSA, S. aureus IHMA 1713793, MSSA / VSSA
  MIC: 0.5 µg/mL (≈ 1.25 µM)
